In patent US4562287A, “2-(4-Biphenylyl)-4-hexenoic acid and derivatives thereof having anti-inflammatory activity” (priority 1983, dated 1985):

Experiments:
[1] = system: Carragenine induced edema; assay: Anti-inflammatory activity on carragenine induced edema (Table 11); assay type: in vivo; details: for % inhibition: 50 mg/Kg p.o.
[2] = system: capillary permeability (Dextran); assay: Effect on the capillary permeability, dextran; assay type: in vivo; details: 200 mg/Kg p.o., checks 14.83, 200 mg/kg
Text: (§1) |Effect on the capillary permeability

[3] = system: capillary permeability (Serotonin); details: 200 mg/Kg p.o., checks 18.16
[4] = system: Carragenine edema; assay: Edema induced by different substances: carragenine (Table 3); assay type: in vivo
Text: (§2) |Edema induced by different substances.

[5] = system: Serotonin edema; assay: Edema induced by different substances: serotonin (Table 3); assay type: in vivo
Text: as §2

[6] = system: Yeast edema; assay: Edema induced by different substances: yeast (Table 3); assay type: in vivo
Text: |Edema induced by different substances. | % edema inhibition

[7] = system: Cotton-pellets induced granuloma; assay: Cotton-pellets induced granuloma; assay type: in vivo; details: 200 mg/Kg p.o.
Text: | Cotton-pellets induced granuloma.

[8] = system: capillary permeability (Histamine); assay: Effect on the capillary permeability, histamine; assay type: in vivo; details: 200 mg/Kg p.o., checks 21.33, 200 mg/kg
Text: as §1

[9] = system: ulcerogenic effect; assay: Ulcerogenic effect; assay type: in vivo; details: dose 50 mg
[10] = system: Dextrose edema; assay: Edema induced by different substances: dextrose (Table 3); assay type: in vivo
Text: as §2

[11] = system: Kaolin edema; assay: Edema induced by different substances: kaolin (Table 3); assay type: in vivo
Text: as §2

SMILES: CC=CCC(C(=O)O)c1ccc(-c2ccccc2)cc1 (single isomer, unassigned; (+)) [SCR 152, (+) 2-(4-biphenylyl)-4-hexenoic acid]
- % inhibition [1]: 31%
- anti-inflammatory effect (in words) ([1]; dose of 50 mg): rather good anti-inflammatory effect
- Effect on the capillary permeability, .0. m.micron [2]: 8.00 m.micron
- Effect on the capillary permeability, .0. m.micron [3]: 17.71 m.micron
- % edema inhibition ([4]; 50 mg/Kg p.o., 50 mg/kg): 54%
- % edema inhibition ([4]; 100 mg/Kg p.o., 100 mg/kg): 52%
- % edema inhibition ([4]; 200 mg/Kg p.o., 200 mg/kg): 66%
- % edema inhibition ([5]; 50 mg/Kg p.o., 50 mg/kg): 3%
- % edema inhibition ([5]; 100 mg/Kg p.o., 100 mg/kg): 3%
- % edema inhibition ([5]; 200 mg/Kg p.o., 200 mg/kg): 17%
- % edema inhibition ([6]; 50 mg/Kg p.o.): 13%
- % edema inhibition ([6]; 100 mg/Kg p.o., 100 mg/kg): 25%
- % edema inhibition ([6]; 200 mg/Kg p.o., 200 mg/kg): 17%
- % inhibition [7]: 12%
- Effect on the capillary permeability, .0. m.micron [8]: 21.57 m.micron
- ulcerogenic effect [9]: exhibits none ulcerogenic effect
- % edema inhibition ([10]; 50 mg/Kg p.o., 50 mg/kg): 12%
- % edema inhibition ([10]; 100 mg/Kg p.o., 100 mg/kg): 39%
- % edema inhibition ([10]; 200 mg/Kg p.o., 200 mg/kg): 45%
- % edema inhibition ([11]; 50 mg/Kg p.o., 50 mg/kg): 19%
- % edema inhibition ([11]; 100 mg/Kg p.o., 100 mg/kg): 40%
- % edema inhibition ([11]; 200 mg/Kg p.o., 200 mg/kg): 40%

SMILES: CCCCC1C(=O)N(c2ccccc2)N(c2ccc(O)cc2)C1=O (stereo not drawn) [Oxyphenbutazone, reference compound]
- % inhibition [1]: 41%
- % inhibition [7]: 24%
